{"source": "paper PMC12505902", "about": "“Inhibitors of trehalose-6-phosphate synthase activity in fungal pathogens compromise thermal tolerance pathways” (mBio, 2025)", "system": "C. glabrata (CBS138)", "assay": "MIC dose-response assay in YPD", "assay_type": "cell-based", "experimental": "Fig 4 4456dh inhibits the growth of Candida and Cryptococcus species. […] 4456dh was administered at the concentrations indicated. Cultures were grown in YPD at the listed temperatures for 48 hours for Candida species and 72 hours for Cryptococcus species. Experimental temperatures reflect the temperatures at which the fungi experience heat stress. Left: relative growth of treated samples was calculated by averaging technical triplicates and normalizing the OD600 of each treated well to the average OD600 of the untreated WT controls, after the absorbance due to the compound was subtracted. The MIC80 values, calculated based on the OD600 values, are indicated in the white text on each heat map. Right: representative spot assays show the ability of cells to grow after exposure to 4456dh and indicate fungicidal activity of 4456dh. […]\nFurthermore, there was significant fungicidal activity of 4456dh on C. glabrata in concentrations starting at approximately 7.8 µM (Fig. 4B).\n77 and 5 mM imidazole. The protein was eluted with increasing amounts of imidazole in the wash\n78 buffer. The fractions containing 6xHis-CnTps1 were pooled, reduced to 5 mL and purified further\n79 using S200 size exclusion column chromatography (HiLoad 26/600 Superdex 200pg, Cytiva) […]\n82 determined by SDS-PAGE analysis, were pooled and concentrated to 1 mg/mL for downstream […]\n93 The data were acquired with MO.Control 1.5.3 (NanoTemper Technologies GmbH). Recorded\n94 data were analyzed with MO.Affinity Analysis 2.2.7 (NanoTemper Technologies GmbH). […]\n100 2X Glo-melt dye. Thermal denaturation was measured using an RT-PCR thermocycler (BioRad) […]\n102 determined by identifying the inflection point of the derivative data. […]\n104 The catalytic activity of C. albicans Tps1 and C. neoformans Tps1 was measured via a continuous […]\n110 bottomed 96-well microtiter plates and the decrease in absorbance at 340 nm during the initial\n111 reaction rate was recorded using a plate reader (Tecan). The decrease in absorbance was\n112 analyzed for the first 200s of the kinetic reaction. […]", "note": "Like-named read-outs stand apart in the source and are kept apart here.", "data": [{"smiles": "Cn1cc(-c2csc(NC(=O)Cc3ccccn3)n2)cn1", "note": "[Compound 4456dh]", "values": [{"measurement": "MIC80", "setting": "30°C, YPD", "result": "no MIC or fungicidal activity was detected"}, {"measurement": "MIC80", "setting": "Nakaseomyces glabratus, CBS138, 42°C, YPD, 48 hours, read-out: MIC80", "result": 7.8, "unit": "µM"}, {"measurement": "MIC80", "setting": "Nakaseomyces glabratus, CBS138, Supplemental Table 5, This publication, read-out: MIC80", "result": 3.1, "unit": "µg/mL"}]}]}
